Assay results published in publication PMC3170524 (Physiological research / Academia Scientiarum Bohemoslovaca, 2010).
Residue numbers refer to the chain shown, from its start.

Columns and labels:
Experiment in all cases: whole-cell patch clamp, peak current dose-response
Type in all cases: cell-based
rat P2X4R [1] = biological target: T1, rat P2X4R (Rattus norvegicus, UniProt P51577, C270T)
T1 sequence (P51577 1-388 C270T): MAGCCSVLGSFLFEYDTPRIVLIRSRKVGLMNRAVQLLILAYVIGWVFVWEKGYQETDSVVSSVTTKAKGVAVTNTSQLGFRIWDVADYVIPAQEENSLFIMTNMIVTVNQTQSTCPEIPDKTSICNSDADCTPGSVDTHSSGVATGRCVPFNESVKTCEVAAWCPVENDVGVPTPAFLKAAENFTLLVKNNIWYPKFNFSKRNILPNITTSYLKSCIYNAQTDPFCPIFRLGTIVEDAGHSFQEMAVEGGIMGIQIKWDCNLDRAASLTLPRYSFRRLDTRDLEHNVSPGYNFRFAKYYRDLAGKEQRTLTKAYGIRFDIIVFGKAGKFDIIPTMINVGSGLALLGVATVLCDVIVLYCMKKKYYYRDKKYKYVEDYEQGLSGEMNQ

rat P2X4R [2] = biological target: T2, rat P2X4R (Rattus norvegicus, UniProt P51577, C159T)
T2 sequence (P51577 1-388 C159T): T1 sequence (P51577 1-388 C270T) with C159T, T270C

rat P2X4R [3] = biological target: T3, rat P2X4R (Rattus norvegicus, UniProt P51577, C165A)
T3 sequence (P51577 1-388 C165A): T1 sequence (P51577 1-388 C270T) with C165A, T270C

rat P2X4R [4] = biological target: T4, rat P2X4R (Rattus norvegicus, UniProt P51577, C261T/C270T)
T4 sequence (P51577 1-388 C261T/C270T): T1 sequence (P51577 1-388 C270T) with C261T

EC50 (rat P2X4R [1]): 3.4 ± 1.8 µM
EC50 (rat P2X4R [2]): 12 ± 4.1 µM
EC50 (rat P2X4R [3]): 42 ± 8.9 µM
EC50 (rat P2X4R [4]): 1.7 ± 0.8 µM
SMILES: Nc1ncnc2c1ncn2[C@@H]1O[C@H](COP(=O)(O)OP(=O)(O)OP(=O)(O)O)[C@@H](O)[C@H]1O [ATP]
